Data published in patent publication EP4467141A1, “PYRAZOLO-QUINOLINES AS SELECTIVE INHIBITORS OF GENOTOXIC STRESS-INDUCED IKK/NF- KB PATHWAYS FOR CANCER THERAPY” (Max-Delbrück-Centrum für Molekulare Medizin in der …, priority 2023, dated 2024).

Tests used:
Assay in all cases: Kinase panel study
Type in all cases: biochemical
Details in all cases: read-out: Percentage of inhibition; for inhibition at 1 µM: 1000nM; for inhibition at 10 µM: 10000nM
PRKACA (PKA) = molecular target: T1, PRKACA (PKA) (Homo sapiens, UniProt P17612)
T1 construct: purchased Thermo Fisher Scientific
Outline: (§1)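 Percent inhibition of each kinase by the test compound, given at either 1 µM or 10 µM, came from a contracted panel run by ZLyte or Adapta protocol.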

SPHK1 = molecular target: T2, SPHK1 (Homo sapiens, UniProt Q9NYA1)
T2 construct: purchased Thermo Fisher Scientific
T2 sequence (Q9NYA1 whole entry): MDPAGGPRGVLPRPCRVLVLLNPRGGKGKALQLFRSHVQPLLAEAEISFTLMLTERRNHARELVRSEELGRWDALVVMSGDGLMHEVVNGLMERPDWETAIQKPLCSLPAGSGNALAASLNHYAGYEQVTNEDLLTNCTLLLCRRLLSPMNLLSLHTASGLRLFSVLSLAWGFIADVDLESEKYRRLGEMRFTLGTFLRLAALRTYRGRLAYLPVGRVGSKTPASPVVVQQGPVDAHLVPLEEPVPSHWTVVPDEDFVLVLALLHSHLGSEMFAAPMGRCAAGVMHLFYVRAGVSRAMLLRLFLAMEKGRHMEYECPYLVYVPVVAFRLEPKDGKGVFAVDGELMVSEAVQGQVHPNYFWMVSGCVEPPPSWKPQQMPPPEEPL
Outline: as §1

FRK (PTK5) = molecular target: T3, FRK (PTK5) (Homo sapiens, UniProt P42685)
T3 construct: purchased Thermo Fisher Scientific
Outline: as §1

PRKX = molecular target: T4, PRKX (Homo sapiens, UniProt P51817)
T4 construct: purchased Thermo Fisher Scientific
T4 sequence (P51817 1-358): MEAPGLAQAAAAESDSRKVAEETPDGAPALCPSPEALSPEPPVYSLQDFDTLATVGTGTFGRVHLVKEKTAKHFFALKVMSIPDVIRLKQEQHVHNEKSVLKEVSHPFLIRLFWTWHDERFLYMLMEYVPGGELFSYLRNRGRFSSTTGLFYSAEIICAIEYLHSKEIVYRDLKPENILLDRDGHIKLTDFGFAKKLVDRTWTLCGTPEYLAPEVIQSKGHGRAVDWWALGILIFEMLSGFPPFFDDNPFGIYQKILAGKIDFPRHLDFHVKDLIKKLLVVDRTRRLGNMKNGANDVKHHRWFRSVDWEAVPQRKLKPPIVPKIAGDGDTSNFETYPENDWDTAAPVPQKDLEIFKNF
Outline: as §1

PAK7 (KIAA1264) = molecular target: T5, PAK7 (KIAA1264) (Homo sapiens, UniProt Q9P286)
T5 construct: purchased Thermo Fisher Scientific
T5 sequence (Q9P286 whole entry): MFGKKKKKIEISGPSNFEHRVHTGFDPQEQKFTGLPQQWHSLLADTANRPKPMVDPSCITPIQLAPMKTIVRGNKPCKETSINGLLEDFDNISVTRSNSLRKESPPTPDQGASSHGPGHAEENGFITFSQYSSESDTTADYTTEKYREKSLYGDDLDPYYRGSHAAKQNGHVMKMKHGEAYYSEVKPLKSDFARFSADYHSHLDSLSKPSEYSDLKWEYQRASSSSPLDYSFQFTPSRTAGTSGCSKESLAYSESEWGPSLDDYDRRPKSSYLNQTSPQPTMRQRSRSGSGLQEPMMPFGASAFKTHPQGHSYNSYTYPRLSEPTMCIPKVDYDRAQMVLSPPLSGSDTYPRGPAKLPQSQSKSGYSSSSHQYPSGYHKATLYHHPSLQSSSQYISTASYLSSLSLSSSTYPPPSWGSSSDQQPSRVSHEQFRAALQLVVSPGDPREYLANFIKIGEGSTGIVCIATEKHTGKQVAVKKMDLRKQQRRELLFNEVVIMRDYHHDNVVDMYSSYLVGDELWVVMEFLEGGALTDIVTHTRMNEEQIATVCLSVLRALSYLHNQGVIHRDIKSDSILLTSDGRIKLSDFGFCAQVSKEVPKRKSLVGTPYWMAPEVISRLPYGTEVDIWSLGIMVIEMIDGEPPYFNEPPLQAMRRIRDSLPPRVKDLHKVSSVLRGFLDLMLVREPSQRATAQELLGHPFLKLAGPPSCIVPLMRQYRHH
Outline: as §1

FGFR2 N549H = molecular target: T6, FGFR2 N549H (Homo sapiens, UniProt P21802, N549H)
T6 construct: purchased Thermo Fisher Scientific
T6 sequence (P21802 22-821 N549H): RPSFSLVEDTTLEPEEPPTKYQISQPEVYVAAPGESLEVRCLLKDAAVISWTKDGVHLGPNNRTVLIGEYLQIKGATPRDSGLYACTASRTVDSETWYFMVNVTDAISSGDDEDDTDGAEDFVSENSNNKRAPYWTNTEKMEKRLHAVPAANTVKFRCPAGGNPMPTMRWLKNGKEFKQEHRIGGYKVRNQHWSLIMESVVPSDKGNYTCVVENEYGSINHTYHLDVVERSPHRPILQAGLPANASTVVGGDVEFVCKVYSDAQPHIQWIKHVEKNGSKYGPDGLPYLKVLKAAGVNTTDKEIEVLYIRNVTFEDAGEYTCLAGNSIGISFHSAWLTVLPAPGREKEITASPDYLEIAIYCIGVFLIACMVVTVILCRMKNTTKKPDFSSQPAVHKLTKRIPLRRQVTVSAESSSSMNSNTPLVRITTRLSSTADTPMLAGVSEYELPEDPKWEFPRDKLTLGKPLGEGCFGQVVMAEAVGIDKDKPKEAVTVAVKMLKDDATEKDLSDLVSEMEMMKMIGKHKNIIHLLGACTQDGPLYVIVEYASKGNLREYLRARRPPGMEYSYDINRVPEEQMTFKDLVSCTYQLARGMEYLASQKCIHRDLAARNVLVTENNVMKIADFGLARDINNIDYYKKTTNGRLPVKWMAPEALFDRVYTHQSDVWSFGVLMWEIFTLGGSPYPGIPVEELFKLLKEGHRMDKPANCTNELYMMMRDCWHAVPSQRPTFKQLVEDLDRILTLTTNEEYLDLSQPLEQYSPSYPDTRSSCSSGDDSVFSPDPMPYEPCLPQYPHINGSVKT
Outline: as §1

MAPK3 (ERK1) = molecular target: T7, MAPK3 (ERK1) (Homo sapiens, UniProt P27361)
T7 construct: purchased Thermo Fisher Scientific
T7 sequence (P27361 whole entry): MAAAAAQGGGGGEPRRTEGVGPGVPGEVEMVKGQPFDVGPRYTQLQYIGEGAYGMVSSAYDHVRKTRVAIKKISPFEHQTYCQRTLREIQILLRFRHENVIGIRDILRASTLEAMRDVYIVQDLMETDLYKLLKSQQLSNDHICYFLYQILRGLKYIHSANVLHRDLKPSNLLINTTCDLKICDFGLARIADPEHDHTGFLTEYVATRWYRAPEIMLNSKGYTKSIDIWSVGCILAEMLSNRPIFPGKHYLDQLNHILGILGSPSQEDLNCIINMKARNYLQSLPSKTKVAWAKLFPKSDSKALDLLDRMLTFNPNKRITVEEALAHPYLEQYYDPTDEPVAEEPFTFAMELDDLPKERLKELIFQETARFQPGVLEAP
Outline: as §1

SRC N1 = molecular target: T8, SRC N1 (Homo sapiens, UniProt P12931)
T8 construct: purchased Thermo Fisher Scientific
T8 sequence (P12931 1-542 isoform P12931-2): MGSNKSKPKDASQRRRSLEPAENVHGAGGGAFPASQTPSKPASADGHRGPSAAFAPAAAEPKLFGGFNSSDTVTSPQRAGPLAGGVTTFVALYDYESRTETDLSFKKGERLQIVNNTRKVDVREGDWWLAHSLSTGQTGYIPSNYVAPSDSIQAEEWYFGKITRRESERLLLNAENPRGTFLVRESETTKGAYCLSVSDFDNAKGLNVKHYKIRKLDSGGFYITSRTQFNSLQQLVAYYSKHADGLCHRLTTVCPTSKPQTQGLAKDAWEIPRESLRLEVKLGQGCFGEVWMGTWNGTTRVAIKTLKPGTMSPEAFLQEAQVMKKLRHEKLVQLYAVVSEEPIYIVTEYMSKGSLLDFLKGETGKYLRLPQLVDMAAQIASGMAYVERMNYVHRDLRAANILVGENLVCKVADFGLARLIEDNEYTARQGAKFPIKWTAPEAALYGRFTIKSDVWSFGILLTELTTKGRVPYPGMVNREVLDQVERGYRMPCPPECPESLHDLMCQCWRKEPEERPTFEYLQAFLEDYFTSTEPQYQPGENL
Outline: as §1

SYK = molecular target: T9, SYK (Homo sapiens, UniProt P43405)
T9 construct: purchased Thermo Fisher Scientific
Outline: as §1

PRKCH (PKC eta) = molecular target: T10, PRKCH (PKC eta) (Homo sapiens, UniProt P24723)
T10 construct: purchased Thermo Fisher Scientific
T10 sequence (P24723 whole entry): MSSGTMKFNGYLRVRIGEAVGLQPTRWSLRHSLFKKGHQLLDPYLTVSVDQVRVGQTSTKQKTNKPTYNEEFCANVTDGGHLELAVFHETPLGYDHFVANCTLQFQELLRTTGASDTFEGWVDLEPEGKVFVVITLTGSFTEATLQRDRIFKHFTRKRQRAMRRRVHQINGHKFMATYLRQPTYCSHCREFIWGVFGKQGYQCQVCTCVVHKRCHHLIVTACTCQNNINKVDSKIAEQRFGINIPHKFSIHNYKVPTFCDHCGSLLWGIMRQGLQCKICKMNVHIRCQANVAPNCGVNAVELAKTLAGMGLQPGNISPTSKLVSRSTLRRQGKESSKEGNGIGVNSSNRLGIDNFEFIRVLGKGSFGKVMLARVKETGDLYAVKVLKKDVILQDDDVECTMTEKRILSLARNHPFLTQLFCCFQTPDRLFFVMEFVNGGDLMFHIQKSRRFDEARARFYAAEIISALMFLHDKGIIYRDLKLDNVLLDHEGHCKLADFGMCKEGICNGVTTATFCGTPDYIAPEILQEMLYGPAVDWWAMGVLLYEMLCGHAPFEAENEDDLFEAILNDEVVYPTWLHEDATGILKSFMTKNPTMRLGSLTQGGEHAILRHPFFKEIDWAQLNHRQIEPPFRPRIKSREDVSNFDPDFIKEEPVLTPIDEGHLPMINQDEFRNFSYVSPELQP
Outline: as §1

CAMK2D (CaMKII delta) = molecular target: T11, CAMK2D (CaMKII delta) (Homo sapiens, UniProt Q13557)
T11 construct: purchased Thermo Fisher Scientific
Outline: as §1

CDC42 BPG (MRCKG) = molecular target: T12, CDC42 BPG (MRCKG) (Homo sapiens, UniProt Q6DT37)
T12 construct: purchased Thermo Fisher Scientific
T12 sequence (Q6DT37 whole entry): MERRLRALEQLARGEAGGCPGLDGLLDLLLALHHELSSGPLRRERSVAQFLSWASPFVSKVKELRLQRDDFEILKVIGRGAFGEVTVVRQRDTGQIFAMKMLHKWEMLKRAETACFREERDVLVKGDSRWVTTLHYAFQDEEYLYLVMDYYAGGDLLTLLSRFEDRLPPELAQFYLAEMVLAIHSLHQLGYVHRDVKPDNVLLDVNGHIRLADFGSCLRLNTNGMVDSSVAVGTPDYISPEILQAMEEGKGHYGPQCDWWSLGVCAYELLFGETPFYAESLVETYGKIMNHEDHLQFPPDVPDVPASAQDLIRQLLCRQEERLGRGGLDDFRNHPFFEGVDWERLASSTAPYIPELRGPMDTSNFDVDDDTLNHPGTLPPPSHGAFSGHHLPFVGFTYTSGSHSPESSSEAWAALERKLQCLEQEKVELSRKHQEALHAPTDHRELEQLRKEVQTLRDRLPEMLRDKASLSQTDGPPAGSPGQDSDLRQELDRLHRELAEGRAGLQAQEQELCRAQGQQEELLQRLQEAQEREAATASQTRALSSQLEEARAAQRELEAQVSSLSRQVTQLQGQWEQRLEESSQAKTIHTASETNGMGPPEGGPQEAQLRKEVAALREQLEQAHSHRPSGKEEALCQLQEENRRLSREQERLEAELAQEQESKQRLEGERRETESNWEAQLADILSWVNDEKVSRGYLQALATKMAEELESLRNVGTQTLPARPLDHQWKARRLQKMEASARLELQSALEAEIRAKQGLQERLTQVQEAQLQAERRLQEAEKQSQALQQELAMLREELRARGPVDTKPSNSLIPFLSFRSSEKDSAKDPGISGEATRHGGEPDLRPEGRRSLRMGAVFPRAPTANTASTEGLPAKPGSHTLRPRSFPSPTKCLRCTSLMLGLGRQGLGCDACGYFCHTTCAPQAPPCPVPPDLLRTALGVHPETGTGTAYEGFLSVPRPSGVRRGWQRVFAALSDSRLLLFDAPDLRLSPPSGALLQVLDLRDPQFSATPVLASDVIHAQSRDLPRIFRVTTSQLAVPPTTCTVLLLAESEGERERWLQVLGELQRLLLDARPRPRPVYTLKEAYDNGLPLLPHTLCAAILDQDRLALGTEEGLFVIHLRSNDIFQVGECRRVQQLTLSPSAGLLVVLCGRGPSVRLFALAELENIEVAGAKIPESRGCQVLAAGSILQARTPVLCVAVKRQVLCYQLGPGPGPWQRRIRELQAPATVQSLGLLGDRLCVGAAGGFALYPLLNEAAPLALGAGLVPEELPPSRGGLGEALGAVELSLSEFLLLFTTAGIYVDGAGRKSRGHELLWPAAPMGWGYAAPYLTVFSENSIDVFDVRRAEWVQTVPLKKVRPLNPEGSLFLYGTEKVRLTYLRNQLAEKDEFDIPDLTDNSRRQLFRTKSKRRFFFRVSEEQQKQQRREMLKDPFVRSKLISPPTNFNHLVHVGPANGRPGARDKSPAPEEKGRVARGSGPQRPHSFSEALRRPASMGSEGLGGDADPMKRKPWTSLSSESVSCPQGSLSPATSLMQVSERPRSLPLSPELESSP
Outline: as §1

TBK1 = molecular target: T13, TBK1 (Homo sapiens, UniProt Q9UHD2)
T13 construct: purchased Thermo Fisher Scientific
T13 sequence (Q9UHD2 1-729): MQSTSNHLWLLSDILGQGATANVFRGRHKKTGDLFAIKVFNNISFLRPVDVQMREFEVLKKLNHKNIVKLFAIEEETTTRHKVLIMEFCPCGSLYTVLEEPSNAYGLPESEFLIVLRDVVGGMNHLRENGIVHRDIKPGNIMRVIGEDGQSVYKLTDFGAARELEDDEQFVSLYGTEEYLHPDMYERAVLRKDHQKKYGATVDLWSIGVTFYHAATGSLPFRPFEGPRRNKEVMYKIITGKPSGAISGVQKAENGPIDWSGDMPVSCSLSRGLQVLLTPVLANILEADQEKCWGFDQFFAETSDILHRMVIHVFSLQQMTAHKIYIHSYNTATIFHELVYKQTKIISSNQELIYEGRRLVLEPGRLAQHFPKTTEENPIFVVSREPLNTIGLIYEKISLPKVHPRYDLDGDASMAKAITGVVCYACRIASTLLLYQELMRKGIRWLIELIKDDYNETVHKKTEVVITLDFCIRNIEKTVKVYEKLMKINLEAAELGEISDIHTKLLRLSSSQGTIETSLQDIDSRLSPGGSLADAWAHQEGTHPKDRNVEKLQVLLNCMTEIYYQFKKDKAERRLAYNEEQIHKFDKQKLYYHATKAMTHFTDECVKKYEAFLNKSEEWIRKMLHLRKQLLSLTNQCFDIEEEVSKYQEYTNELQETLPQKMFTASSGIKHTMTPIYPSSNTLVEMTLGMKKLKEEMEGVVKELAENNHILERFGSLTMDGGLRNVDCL
Outline: as §1

Structure (SMILES) | inhibition at 1 µM (PRKACA (PKA)) | inhibition at 10 µM (PRKACA (PKA)) | inhibition at 1 µM (SPHK1) | inhibition at 10 µM (SPHK1) | inhibition at 1 µM (FRK (PTK5)) | inhibition at 10 µM (FRK (PTK5)) | inhibition at 1 µM (PRKX) | inhibition at 10 µM (PRKX) | inhibition at 1 µM (PAK7 (KIAA1264)) | inhibition at 10 µM (PAK7 (KIAA1264)) | inhibition at 1 µM (FGFR2 N549H) | inhibition at 10 µM (FGFR2 N549H) | inhibition at 1 µM (MAPK3 (ERK1)) | inhibition at 10 µM (MAPK3 (ERK1)) | inhibition at 1 µM (SRC N1) | inhibition at 10 µM (SRC N1) | inhibition at 1 µM (SYK) | inhibition at 10 µM (SYK) | inhibition at 1 µM (PRKCH (PKC eta)) | inhibition at 10 µM (PRKCH (PKC eta)) | further results
COc1ccc2c(c1OC)c(=O)n1c3ccc(O)cc3c3ccnc2c31 [MW01, 5-Hydroxy-10,11-dimethoxy-9H-benzo[c]indolo[3,2,1-ij][1,5]naphthyridin-9-one] | 6% | 17% | -7% | -3% | 15% | 22% | 22% | 16% | 2% | 11% | 0% | 13% | 14% | 4% | 15% | 25% | 16% | 37% | 1% | 7% | inhibition at 1 µM (CAMK2D (CaMKII delta)): 13%; inhibition at 10 µM (CAMK2D (CaMKII delta)): 60%; inhibition at 1 µM (CDC42 BPG (MRCKG)): 1%; inhibition at 10 µM (CDC42 BPG (MRCKG)): 5%; inhibition at 1 µM (TBK1): 8%; inhibition at 10 µM (TBK1): 17%
COc1ccc2cc3c(N)nn(C(=O)c4cccc(N(C)C)c4)c3nc2c1 [MW05, (3-Amino-7-methoxypyrazolo[3,4-b]quinolin-1-yl)-[3-(dimethylamino)phenyl]methanone] | 12% | -15% | -2% | 1% | 9% | 6% | 8% | -2% | 15% | 13% | -4% | -22% | 14% | 11% | 16% | 14% | 5% | 7% | -3% | -9% | inhibition at 1 µM (CAMK2D (CaMKII delta)): 3%; inhibition at 10 µM (CAMK2D (CaMKII delta)): 13%; inhibition at 1 µM (CDC42 BPG (MRCKG)): 0%; inhibition at 10 µM (CDC42 BPG (MRCKG)): 0%; inhibition at 1 µM (TBK1): 11%; inhibition at 10 µM (TBK1): -8%
